The structures appear in SMILES notation. Positions of bridges follow the written chain, without caps; N, C: chain ends. Non-standard residues stand in square brackets, D forms with d. Residues, ends and D or L forms follow the SMILES beside them. Orn = NCCC[C@H](N)C(=O)O Where only a bound is given, the exact number is not on record here.

In data set [1] the target is Neuropilin-1 (Rattus norvegicus) (UniProt Q9QWJ9). Description: Inhibition of biotin-labelled VEGF165 binding to rat recombinant NRP-1/Fc chimeric protein at 10 uM incubated for overnight by competitive ELISA method relative to control. A general note: An ELISA detects its analyte on a solid surface through an enzyme-linked reagent.
For data set [2] the target is unchanged. The experiment in a line: Inhibition of biotin-labelled VEGF165 binding to rat recombinant NRP-1/Fc chimeric protein at 3 uM incubated for overnight by competitive ELISA method relative to control.
Data set [3] has the same target. The experiment in a line: Inhibition of biotin-labelled VEGF165 binding to rat recombinant NRP-1/Fc chimeric protein at 1 uM incubated for overnight by competitive ELISA method relative to control.
The target is the same in data set [4]. The experiment in a line: Inhibition of biotin labelled VEGF165 binding to rat recombinant NRP-1/Fc chimeric protein at 0.3 uM incubated for overnight by competitive ELISA method relative to control.
Another data set addresses Neuropilin-1 (Rattus norvegicus, UniProt Q9QWJ9). Description: Inhibition of biotin labelled VEGF165 binding to rat recombinant NRP-1/Fc chimeric protein incubated for overnight by competitive ELISA method.
The nature of data set [5]: Cytotoxicity against human MDA-MB-231 cells at 10 to 1000 uM measured after 24 to 96 hrs by MTS assay. The format is toxicity, cell-based. The following applies: mda-mb-231, 1000 µM.
Data set [6] is described as follows: Cytotoxicity against HUVEC at 10 to 1000 uM measured after 24 to 96 hrs by MTS assay. The format is toxicity, cell-based. Conditions: human. For orientation: Formazan colour is commonly taken as a measure of viable cells.

A word on the inhibition: it is the share of the control response that was lost under treatment. With `N=C(N)NCCC[C@H](NC(=O)[C@@H]1CCC(=O)NCCC[C@H](N)C(=O)N2CCC[C@H]2C(=O)N1)C(=O)O` (H-[Orn]PER-OH; lactam 1-3), the inhibition in data set [1] came to 46.6%; in data set [2], 35.4%; in data set [3], 27.8%; in data set [4] it was 14.6%. Besides, the IC50 on Neuropilin-1 (read-out: IC50) is over 10 µM.
In the case of `N=C(N)NCCC[C@H](NC(=O)[C@@H]1CCC(=O)NCCCC[C@@H](N)C(=O)N2CCC[C@H]2C(=O)N1)C(=O)O` (H-[dK]PER-OH; lactam 1-3), the inhibition in data set [1] worked out at 4%; in data set [2], 2.3%; in data set [3] it was 1.1%. Besides, the IC50 at Neuropilin-1 (read-out: IC50) was over 10 µM.
Turning to `N=C(N)NCCC[C@H](NC(=O)CC[C@@H]1NC(=O)[C@H]2CCCN2C(=O)[C@@H](N)CCCCNC(=O)CC[C@@H](C(=O)N[C@@H](CCCNC(=N)N)C(=O)O)NC(=O)[C@H]2CCCN2C(=O)[C@H](CCCCN)NC1=O)C(=O)O`, the inhibition in data set [1] is 86.8%; in data set [2], 72.2%; in data set [3] it was 46.6%; in data set [4], 30.1%. The IC50 was 0.89 µM at Neuropilin-1 (read-out: IC50) and 1 µM at Neuropilin-1 (read-out: pIC50 (converted)).
`N=C(N)NCCC[C@H](NC(=O)[C@@H]1CC(=O)NCCCC[C@H](N)C(=O)N2CCC[C@H]2C(=O)N1)C(=O)O` (H-KPDR-OH; lactam 1-3): the inhibition in data set [1] was 14.7%; in data set [2] it was 12.5%; in data set [3] it was 11.8%. The IC50 on Neuropilin-1 (read-out: IC50) is over 10 µM.
Take `N=C(N)NCCC[C@H](NC(=O)[C@@H]1CCCCNC(=O)CC[C@H](N)C(=O)N2CCC[C@H]2C(=O)N1)C(=O)O` (H-EPKR-OH; lactam 1-3): the inhibition in data set [1] worked out at 89%; in data set [2], 85.4%; in data set [3], 79%; in data set [4], 68.3%. In addition, the Activity entry in data set [5] and in data set [6] was “Non-Toxic” each time. Further, the IC50 on Neuropilin-1 (read-out: IC50) came to 0.16 µM.

Values taken from ChEMBL document CHEMBL3875187, “Structure-activity relationship study of a small cyclic peptide H-c[Lys-Pro-Glu]-Arg-OH: a potent inhibitor of Vascular Endothelial Growth Factor interaction with Neuropilin-1” (Bioorg Med Chem, 2017).
